Measurements reported in patent publication US20240342143A1, “APPLICATION OF ALKALOID COMPOUND HIP IN TREATMENT OF CARDIAC TRAUMA” (HUZHOU COLLEGE, priority 2022, published 2024).

Experiments:
Assay type in all cases: cell-based
p-JNK = experiment: Western blot of p-JNK/JNK expression in DOX-induced H9c2 cardiomyocytes; conditions: FIG. 4; for expression level of p-JNK vs DOX model group: 1 h, then 2.5 μM DOX 24 h
Protocol: (§1) (2) From H9c2 cardiomyocytes which were treated with different tested seabuckthorn alkaloids for 1 h and then treated with 2.5 μM DOX for 24 h, proteins were extract. That is, the H9c2 cardiomyocytes were lysed and scraped, and the cell lysate were collected and centrifuged at 12,000 g for 15 min to collect the supernatant and discard the precipitate. The supernatant was stored at […], and quantified for proteins using the BCA method for later use. SDS-PAGE electrophoresis was performed by using 5% stacking gel (Step1: 80V, 30 min; Step2: 120V, 180 min). The membrane transfer was performed using a PVDF membrane for 30 min at 80 mA. Blocking and hybridization was performed by blocking in 5% nonfat milk powder for 1 h, incubating with a primary antibody overnight and incubating with a secondary antibody at room temperature for 1-2 h with gentle shaking. Development was performed by ECL reagent development. Expression levels of intracellular Caspase-3 and p-JNK/JNK proteins were observed using a gel imaging system.

Cleaved-Caspase-3 = experiment: Western blot of Cleaved-Caspase-3 expression in DOX-induced H9c2 cardiomyocytes; conditions: FIG. 3
Protocol: as §1

[1] = system: DOX-induced H9c2 cardiomyocytes; experiment: Effect of Hip on DOX-induced H9c2 cardiomyocyte toxicity (MTT colorimetric method); conditions: 1 h pre-incubation, then 2.5 μM DOX 24 h, FIG. 2
Protocol: (1) H9c2 cells were pre-incubated with the alkaloid compound Hip for 1 h, and then added with 2.5 μM doxorubicin (DOX) for 24 h. The effect of the alkaloid compound Hip for DOX-induced cardiomyocyte apoptosis activity was screened by using the MTT colorimetric method. The optimal concentration range for action was determined.

H9c2 cardiomyocytes = experiment: Toxicity effect of Hip on H9c2 cardiomyocytes (MTT colorimetric method); conditions: 24 h, FIG. 1
Protocol: H9c2 cells were incubated with the alkaloid compound Hip at different concentrations (0.1μ, 1μ, 5μ, 10μ, 20μ, 40μ, 80μ, 160 μM) of for 24 h. The toxicity effect of the alkaloid compound on cardiomyocytes was evaluated by using the MTT colorimetric method.

[2] = 2.5 μM DOX 24 h, DOX model group

COc1cccc2c1C(=O)c1c(O)c3c(c(O)c1C2=O)C[C@@](O)(C(=O)CO)C[C@@H]3O[C@H]1C[C@H](N)[C@H](O)[C@H](C)O1 [DOX, doxorubicin, reference compound]
expression level of p-JNK vs Con group (p-JNK; [2]): can significantly increase the expression level of p-JNK
expression level of Cleaved-Caspase-3 vs Con group (Cleaved-Caspase-3; [2]): can significantly increase the expression level of Cleaved-Caspase-3

O=C1CC[C@H]2c3[nH]c4ccc(O)cc4c3CCN12 [Hip, Hippophamide]
difference from DOX model group in DOX-induced myocardial cytotoxicity ([1]; Hip 5-80 μM): significantly or extremely significant different
inhibition of DOX-induced myocardial cytotoxicity vs DOX model group ([1]; different Hip concentrations): can inhibit DOX-induced myocardial cytotoxicity
expression level of p-JNK vs DOX model group (p-JNK; Hip high-dose group 40 μM): extremely significant differences
expression level of p-JNK vs DOX model group (p-JNK; Hip low-dose group 10 μM): no statistical difference
expression level of p-JNK vs DOX model group (p-JNK; Hip middle-dose group 20 μM): extremely significant differences
viability of H9c2 cells vs Con group (H9c2 cardiomyocytes; Hip 80 μM): a significant difference compared with the Con group
viability of H9c2 cells vs Con group (H9c2 cardiomyocytes; Hip 0.1~40 μM): no statistical difference compared with the Con group
expression level of Cleaved-Caspase-3 vs DOX model group (Cleaved-Caspase-3; Hip 10 μM, 20 μM and 40 μM, 1 h, then 2.5 μM DOX 24 h): can decrease the increased level of Cleaved-Caspase-3 caused by DOX to varying degree
